Test results reported in ChEMBL document CHEMBL3351988, “Synthesis and biological evaluation of novel 6-chloro-quinazolin derivatives as potential antitumor agents” (Eur J Med Chem, 2014).
pIC50: −log10 of the molar value. Activity calls are given as the source filed them. The rule behind the calls is not given here.

test system: MGC-803; experiment: Induction of apoptosis in human MGC803 cells assessed as nuclear fragmentation at 1 to 10 uM after 12 hrs by AO/EB staining based fluorescence microscopy; format: functional, cell-based; conditions: not given

SMILES | Activity
O=C(/C=C/c1cc([N+](=O)[O-])ccc1Cl)/C=C/c1ccccc1Oc1ncnc2ccc(Cl)cc12 | Active

test system: MGC-803; experiment: Induction of apoptosis in human MGC803 cells assessed as early apoptotic cell level at 10 uM after 12 hrs by AO/EB staining based fluorescence microscopy; format: functional; conditions: not given

SMILES | Activity
CC[C@@]1(O)C(=O)OCc2c1cc1n(c2=O)Cc2cc3cc(O)ccc3nc2-1 [HYDROXYCAMPTOTHECIN] | Active

test system: Bcap37; experiment: Induction of apoptosis in human Bcap37 cells assessed as cell volume reduction at 1 to 10 uM after 12 hrs by AO/EB staining based fluorescence microscopy; format: functional; conditions: not given

SMILES | Activity
O=C(/C=C/c1cc([N+](=O)[O-])ccc1Cl)/C=C/c1ccccc1Oc1ncnc2ccc(Cl)cc12 | Active

test system: MGC-803; experiment: Induction of apoptosis in human MGC803 cells at 5 uM after 12 hrs by Annexin V-FITC staining based flow cytometry; format: functional; conditions: not given

SMILES | Activity [%]
CC[C@@]1(O)C(=O)OCc2c1cc1n(c2=O)Cc2cc3cc(O)ccc3nc2-1 [HYDROXYCAMPTOTHECIN] | 6
O=C(/C=C/c1cc([N+](=O)[O-])ccc1Cl)/C=C/c1ccccc1Oc1ncnc2ccc(Cl)cc12 | 9.2

test system: MGC-803; experiment: Induction of apoptosis in human MGC803 cells assessed as chromatin condensation at 1 to 10 uM after 12 hrs by AO/EB staining based fluorescence microscopy; format: functional, cell-based; conditions: not given

SMILES | Activity
O=C(/C=C/c1cc([N+](=O)[O-])ccc1Cl)/C=C/c1ccccc1Oc1ncnc2ccc(Cl)cc12 | Active

test system: Bcap37; experiment: Induction of apoptosis in human Bcap37 cells assessed as late apoptotic cell level at 10 uM after 12 hrs by AO/EB staining based fluorescence microscopy; format: functional; conditions: not given

SMILES | Activity
CC[C@@]1(O)C(=O)OCc2c1cc1n(c2=O)Cc2cc3cc(O)ccc3nc2-1 [HYDROXYCAMPTOTHECIN] | Active

test system: Bcap37; experiment: Induction of apoptosis in human Bcap37 cells assessed as condensed chromatin at 10 uM after 12 hrs by Hoechst 33258 staining based fluorescence microscopy; format: functional, cell-based; conditions: not given

SMILES | Activity
CC[C@@]1(O)C(=O)OCc2c1cc1n(c2=O)Cc2cc3cc(O)ccc3nc2-1 [HYDROXYCAMPTOTHECIN] | Active

test system: Bcap37; experiment: Induction of apoptosis in human Bcap37 cells assessed as DNA fragmentation at 10 uM after 12 hrs by TUNEL assay; format: functional, cell-based; conditions: not given

SMILES | Activity
CC[C@@]1(O)C(=O)OCc2c1cc1n(c2=O)Cc2cc3cc(O)ccc3nc2-1 [HYDROXYCAMPTOTHECIN] | Active
O=C(/C=C/c1cc([N+](=O)[O-])ccc1Cl)/C=C/c1ccccc1Oc1ncnc2ccc(Cl)cc12 | Active

test system: not listed separately; experiment: Growth inhibition of human PC3 cells after 72 hrs by MTT assay; format: functional, cell-based; conditions: PC-3, 72 h

SMILES | pIC50
O=C(/C=C/c1cc([N+](=O)[O-])ccc1Cl)/C=C/c1ccccc1Oc1ncnc2ccc(Cl)cc12 | 5.60

test system: MGC-803; experiment: Induction of apoptosis in human MGC803 cells at 10 uM after 12 hrs by Annexin V-FITC staining based flow cytometry; format: functional; conditions: not given

SMILES | Activity [%]
CC[C@@]1(O)C(=O)OCc2c1cc1n(c2=O)Cc2cc3cc(O)ccc3nc2-1 [HYDROXYCAMPTOTHECIN] | 9.1
O=C(/C=C/c1cc([N+](=O)[O-])ccc1Cl)/C=C/c1ccccc1Oc1ncnc2ccc(Cl)cc12 | 15.7

test system: Bcap37; experiment: Induction of apoptosis in human Bcap37 cells assessed as condensed chromatin at 1 to 10 uM after 12 hrs by Hoechst 33258 staining based fluorescence microscopy; format: functional, cell-based; conditions: not given

SMILES | Activity
O=C(/C=C/c1cc([N+](=O)[O-])ccc1Cl)/C=C/c1ccccc1Oc1ncnc2ccc(Cl)cc12 | Active

test system: MGC-803; experiment: Induction of apoptosis in human MGC803 cells assessed as DNA fragmentation at 10 uM after 12 hrs by TUNEL assay; format: functional, cell-based; conditions: not given

SMILES | Activity
CC[C@@]1(O)C(=O)OCc2c1cc1n(c2=O)Cc2cc3cc(O)ccc3nc2-1 [HYDROXYCAMPTOTHECIN] | Active
O=C(/C=C/c1cc([N+](=O)[O-])ccc1Cl)/C=C/c1ccccc1Oc1ncnc2ccc(Cl)cc12 | Active

test system: Bcap37; experiment: Induction of apoptosis in human Bcap37 cells assessed as chromatin condensation at 1 to 10 uM after 12 hrs by AO/EB staining based fluorescence microscopy; format: functional, cell-based; conditions: not given

SMILES | Activity
O=C(/C=C/c1cc([N+](=O)[O-])ccc1Cl)/C=C/c1ccccc1Oc1ncnc2ccc(Cl)cc12 | Active

test system: MGC-803; experiment: Induction of apoptosis in human MGC803 cells at 10 uM after 24 hrs by Annexin V-FITC staining based flow cytometry; format: functional; conditions: not given

SMILES | Activity [%]
CC[C@@]1(O)C(=O)OCc2c1cc1n(c2=O)Cc2cc3cc(O)ccc3nc2-1 [HYDROXYCAMPTOTHECIN] | 18.6
O=C(/C=C/c1cc([N+](=O)[O-])ccc1Cl)/C=C/c1ccccc1Oc1ncnc2ccc(Cl)cc12 | 31.7

test system: MGC-803; experiment: Induction of apoptosis in human MGC803 cells at 10 uM after 6 hrs by Annexin V-FITC staining based flow cytometry; format: functional; conditions: not given

SMILES | Activity [%]
CC[C@@]1(O)C(=O)OCc2c1cc1n(c2=O)Cc2cc3cc(O)ccc3nc2-1 [HYDROXYCAMPTOTHECIN] | 3.5
O=C(/C=C/c1cc([N+](=O)[O-])ccc1Cl)/C=C/c1ccccc1Oc1ncnc2ccc(Cl)cc12 | 10.3

test system: Bcap37; experiment: Growth inhibition of human Bcap37 cells after 72 hrs by MTT assay; format: functional, cell-based; conditions: Bcap37, 72 h

SMILES | pIC50
O=C(/C=C/c1cc([N+](=O)[O-])ccc1Cl)/C=C/c1ccccc1Oc1ncnc2ccc(Cl)cc12 | 5.07

test system: MGC-803; experiment: Growth inhibition of human MGC803 cells at 10 uM after 72 hrs by MTT assay; format: functional; conditions: MGC-803, 72 h, read-out: GI

SMILES | inhibition of growth at 10 µM [%]
O=C(/C=C/c1cc([N+](=O)[O-])ccc1Cl)/C=C/c1ccccc1Oc1ncnc2ccc(Cl)cc12 | 91.6

test system: MGC-803; experiment: Induction of apoptosis in human MGC803 cells assessed as late apoptotic cell level at 10 uM after 12 hrs by AO/EB staining based fluorescence microscopy; format: functional; conditions: not given

SMILES | Activity
CC[C@@]1(O)C(=O)OCc2c1cc1n(c2=O)Cc2cc3cc(O)ccc3nc2-1 [HYDROXYCAMPTOTHECIN] | Active

test system: MGC-803; experiment: Induction of apoptosis in human MGC803 cells at 1 uM after 12 hrs by Annexin V-FITC staining based flow cytometry; format: functional; conditions: not given

SMILES | Activity [%]
CC[C@@]1(O)C(=O)OCc2c1cc1n(c2=O)Cc2cc3cc(O)ccc3nc2-1 [HYDROXYCAMPTOTHECIN] | 2.1
O=C(/C=C/c1cc([N+](=O)[O-])ccc1Cl)/C=C/c1ccccc1Oc1ncnc2ccc(Cl)cc12 | 3.5

test system: MGC-803; experiment: Induction of apoptosis in human MGC803 cells at 5 uM after 24 hrs by Annexin V-FITC staining based flow cytometry; format: functional; conditions: not given

SMILES | Activity [%]
CC[C@@]1(O)C(=O)OCc2c1cc1n(c2=O)Cc2cc3cc(O)ccc3nc2-1 [HYDROXYCAMPTOTHECIN] | 7.3
O=C(/C=C/c1cc([N+](=O)[O-])ccc1Cl)/C=C/c1ccccc1Oc1ncnc2ccc(Cl)cc12 | 16.8

test system: MGC-803; experiment: Induction of apoptosis in human MGC803 cells at 1 uM after 24 hrs by Annexin V-FITC staining based flow cytometry; format: functional; conditions: not given

SMILES | Activity [%]
CC[C@@]1(O)C(=O)OCc2c1cc1n(c2=O)Cc2cc3cc(O)ccc3nc2-1 [HYDROXYCAMPTOTHECIN] | 3.8
O=C(/C=C/c1cc([N+](=O)[O-])ccc1Cl)/C=C/c1ccccc1Oc1ncnc2ccc(Cl)cc12 | 5.2

test system: Bcap37; experiment: Induction of apoptosis in human Bcap37 cells assessed as nuclear fragmentation at 1 to 10 uM after 12 hrs by AO/EB staining based fluorescence microscopy; format: functional, cell-based; conditions: not given

SMILES | Activity
O=C(/C=C/c1cc([N+](=O)[O-])ccc1Cl)/C=C/c1ccccc1Oc1ncnc2ccc(Cl)cc12 | Active

test system: Bcap37; experiment: Growth inhibition of human Bcap37 cells at 10 uM after 72 hrs by MTT assay; format: functional; conditions: Bcap37, 72 h, read-out: GI

SMILES | inhibition of growth at 10 µM [%]
O=C(/C=C/c1cc([N+](=O)[O-])ccc1Cl)/C=C/c1ccccc1Oc1ncnc2ccc(Cl)cc12 | 78.4

test system: MGC-803; experiment: Induction of apoptosis in human MGC803 cells at 1 uM after 6 hrs by Annexin V-FITC staining based flow cytometry; format: functional; conditions: not given

SMILES | Activity [%]
CC[C@@]1(O)C(=O)OCc2c1cc1n(c2=O)Cc2cc3cc(O)ccc3nc2-1 [HYDROXYCAMPTOTHECIN] | 1.3
O=C(/C=C/c1cc([N+](=O)[O-])ccc1Cl)/C=C/c1ccccc1Oc1ncnc2ccc(Cl)cc12 | 2

test system: not listed separately; experiment: Growth inhibition of human PC3 cells at 10 uM after 72 hrs by MTT assay; format: functional; conditions: PC-3, 72 h, read-out: GI

SMILES | inhibition of growth at 10 µM [%]
O=C(/C=C/c1cc([N+](=O)[O-])ccc1Cl)/C=C/c1ccccc1Oc1ncnc2ccc(Cl)cc12 | 86.9

test system: MGC-803; experiment: Induction of apoptosis in human MGC803 cells at 5 uM after 6 hrs by Annexin V-FITC staining based flow cytometry; format: functional; conditions: not given

SMILES | Activity [%]
CC[C@@]1(O)C(=O)OCc2c1cc1n(c2=O)Cc2cc3cc(O)ccc3nc2-1 [HYDROXYCAMPTOTHECIN] | 1.8
O=C(/C=C/c1cc([N+](=O)[O-])ccc1Cl)/C=C/c1ccccc1Oc1ncnc2ccc(Cl)cc12 | 6.7

test system: MGC-803; experiment: Growth inhibition of human MGC803 cells after 72 hrs by MTT assay; format: functional, cell-based; conditions: MGC-803, 72 h

SMILES | pIC50
O=C(/C=C/c1cc([N+](=O)[O-])ccc1Cl)/C=C/c1ccccc1Oc1ncnc2ccc(Cl)cc12 | 5.71

test system: MGC-803; experiment: Induction of apoptosis in human MGC803 cells assessed as condensed chromatin at 1 to 10 uM after 12 hrs by Hoechst 33258 staining based fluorescence microscopy; format: functional, cell-based; conditions: not given

SMILES | Activity
O=C(/C=C/c1cc([N+](=O)[O-])ccc1Cl)/C=C/c1ccccc1Oc1ncnc2ccc(Cl)cc12 | Active

test system: MGC-803; experiment: Induction of apoptosis in human MGC803 cells assessed as condensed chromatin at 10 uM after 12 hrs by Hoechst 33258 staining based fluorescence microscopy; format: functional, cell-based; conditions: not given

SMILES | Activity
CC[C@@]1(O)C(=O)OCc2c1cc1n(c2=O)Cc2cc3cc(O)ccc3nc2-1 [HYDROXYCAMPTOTHECIN] | Active

test system: Bcap37; experiment: Induction of apoptosis in human Bcap37 cells assessed as early apoptotic cell level at 10 uM after 12 hrs by AO/EB staining based fluorescence microscopy; format: functional; conditions: not given

SMILES | Activity
CC[C@@]1(O)C(=O)OCc2c1cc1n(c2=O)Cc2cc3cc(O)ccc3nc2-1 [HYDROXYCAMPTOTHECIN] | Active

test system: MGC-803; experiment: Induction of apoptosis in human MGC803 cells assessed as cell volume reduction at 1 to 10 uM after 12 hrs by AO/EB staining based fluorescence microscopy; format: functional; conditions: not given

SMILES | Activity
O=C(/C=C/c1cc([N+](=O)[O-])ccc1Cl)/C=C/c1ccccc1Oc1ncnc2ccc(Cl)cc12 | Active
